Assay results: patent US20070004633A1, “Use of peptidic conjugates for preparing compositions for alopecia preventive and curative treatment” (priority 2003, published 2007)
Lipoyl = N-lipoyl

Test system: anagen-phase hair follicles of mouse vibrissae
Experiment: Growth of mouse vibrissae in vitro (anagen-phase hair follicle culture, technique of Philpott)
Type: cell-based
Parameters: unit not given here
Conditions: peptide 10^−7 M, cultured mouse vibrissae follicles
Experimental: Effects of the Various Peptides on the Growth of Mouse Vibrissae In Vitro
In order to show the stimulatory effect of the peptides on hair growth, anagen-phase hair follicles of mouse vibrissae are cultured according to the technique described by Philpott (Philpott et al. 1994, Human Hair growth in vitro: a model for the study of hair biology. Journal of dermatological science 7; S55-S72). The growth of the hair follicle shaft was followed for several days (D0 to D4). The results are reported in the table below for the peptides R, S and V described above.

| Substance | growth of the hair follicle shaft (D0) | growth of the hair follicle shaft (D1) | growth of the hair follicle shaft (D2) | growth of the hair follicle shaft (D3) | growth of the hair follicle shaft (D4) |
| --- | --- | --- | --- | --- | --- |
| Ac-Lys-Gly-His-Lys-NH2 (Ac-KGHK-NH2) [Peptide V] | 0.00 | 0.86 | 1.34 | 1.65 | 1.65 |
| H-Gly-His-Lys-OH [Peptide R] | 0.00 | 0.8 | 1.27 | 1.38 | 1.38 |
| Lipoyl-Lys-Gly-His-Lys-NH2 (Lipoyl-KGHK-NH2) [Peptide S] | 0.00 | 0.77 | 1.47 | 1.72 | 1.86 |
